Experimental data reported in PubChem BioAssay AID1918956 (Molecular Pharmacology Branch, DTP, NCI, 2023).

Tested on: OVCAR-5 complex spheroids, viability
Experiment: Anticancer human tumor OVCAR-5 cell line growth inhibition;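 note: spheroids exposed to agents for seven days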;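 for viability, T/C: 100% = DMSO vehicle control wells viability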
Settings: for IC50: curve of first compound; for viability, T/C: stronger effect = lower value
Summary of the method: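 Multicellular complex spheroids of tumor cells with human endothelial cells (HUVEC) and mesenchymal stem cells; the LSD1 inhibitor iadademstat was combined with standard-of-care or investigational agents. Top concentration at or near clinical Cmax, half-log dilutions; final DMSO ≤0.25%.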

[1] = second compound 0.1 µM, first compound 0.00949 µM
[2] = second compound 0.1 µM, first compound 0.03 µM
[3] = second compound 0.1 µM, first compound 0.0949 µM
[4] = second compound 0.1 µM, first compound 0.3 µM
[5] = second compound 0.1 µM, first compound 0.949 µM
[6] = second compound 0.1 µM, first compound 3 µM
[7] = second compound 0.316 µM, first compound 0.00949 µM
[8] = second compound 0.316 µM, first compound 0.03 µM
[9] = second compound 0.316 µM, first compound 0.0949 µM
[10] = second compound 0.316 µM, first compound 0.3 µM
[11] = second compound 0.316 µM, first compound 0.949 µM
[12] = second compound 0.316 µM, first compound 3 µM
[13] = second compound 1 µM, first compound 0.00949 µM
[14] = second compound 1 µM, first compound 0.03 µM
[15] = second compound 1 µM, first compound 0.0949 µM
[16] = second compound 1 µM, first compound 0.3 µM
[17] = second compound 1 µM, first compound 0.949 µM
[18] = second compound 1 µM, first compound 3 µM
[19] = second compound 3.16 µM, first compound 0.00949 µM
[20] = second compound 3.16 µM, first compound 0.03 µM
[21] = second compound 3.16 µM, first compound 0.0949 µM
[22] = second compound 3.16 µM, first compound 0.3 µM
[23] = second compound 3.16 µM, first compound 0.949 µM
[24] = second compound 3.16 µM, first compound 3 µM
[25] = second compound 10 µM, first compound 0.00949 µM
[26] = second compound 10 µM, first compound 0.03 µM
[27] = second compound 10 µM, first compound 0.0949 µM
[28] = second compound 10 µM, first compound 0.3 µM
[29] = second compound 10 µM, first compound 0.949 µM
[30] = second compound 10 µM, first compound 3 µM

CCN(c1cc(-c2ccc(CN3CCOCC3)cc2)cc(C(=O)NCc2c(C)cc(C)[nH]c2=O)c1C)C1CCOCC1 + NC1CC1c1ccc(-c2cccc(O)c2)cc1
IC50 (second compound 0.1 µM): > 3000 nM
IC50 (second compound 0.316 µM): > 3000 nM
IC50 (second compound 1 µM): > 3000 nM
IC50 (second compound 3.16 µM): > 3000 nM
IC50 (second compound 10 µM): > 3000 nM
viability, T/C [1]: 87.6%
viability, T/C [2]: 98.8%
viability, T/C [3]: 106%
viability, T/C [4]: 97%
viability, T/C [5]: 107%
viability, T/C [6]: 92.6%
viability, T/C [7]: 102%
viability, T/C [8]: 108%
viability, T/C [9]: 99.3%
viability, T/C [10]: 94.8%
viability, T/C [11]: 104%
viability, T/C [12]: 102%
viability, T/C [13]: 91.5%
viability, T/C [14]: 84.4%
viability, T/C [15]: 94.3%
viability, T/C [16]: 103%
viability, T/C [17]: 91.9%
viability, T/C [18]: 98.5%
viability, T/C [19]: 88.8%
viability, T/C [20]: 87.7%
viability, T/C [21]: 90.4%
viability, T/C [22]: 90.9%
viability, T/C [23]: 90.6%
viability, T/C [24]: 92.9%
viability, T/C [25]: 86.7%
viability, T/C [26]: 91.9%
viability, T/C [27]: 85.5%
viability, T/C [28]: 93.4%
viability, T/C [29]: 95.5%
viability, T/C [30]: 91.1%

O=C(C=Cn1cnc(-c2cc(C(F)(F)F)cc(C(F)(F)F)c2)n1)NNc1cnccn1 + NC1CC1c1ccc(-c2cccc(O)c2)cc1
IC50 (second compound 0.1 µM): 55.6 nM
IC50 (second compound 0.316 µM): 50.5 nM
IC50 (second compound 1 µM): 39.1 nM
IC50 (second compound 3.16 µM): 23 nM
IC50 (second compound 10 µM): 19.8 nM
viability, T/C (second compound 0.1 µM, first compound 0.00316 µM): 88.9%
viability, T/C (second compound 0.1 µM, first compound 0.01 µM): 73.9%
viability, T/C (second compound 0.1 µM, first compound 0.0316 µM): 57.2%
viability, T/C (second compound 0.1 µM, first compound 0.1 µM): 42.1%
viability, T/C (second compound 0.1 µM, first compound 0.316 µM): 38%
viability, T/C (second compound 0.1 µM, first compound 1 µM): 33.9%
viability, T/C (second compound 0.316 µM, first compound 0.00316 µM): 87.8%
viability, T/C (second compound 0.316 µM, first compound 0.01 µM): 72%
viability, T/C (second compound 0.316 µM, first compound 0.0316 µM): 54.9%
viability, T/C (second compound 0.316 µM, first compound 0.1 µM): 42.2%
viability, T/C (second compound 0.316 µM, first compound 0.316 µM): 39.1%
viability, T/C (second compound 0.316 µM, first compound 1 µM): 34.4%
viability, T/C (second compound 1 µM, first compound 0.00316 µM): 84%
viability, T/C (second compound 1 µM, first compound 0.01 µM): 65.9%
viability, T/C (second compound 1 µM, first compound 0.0316 µM): 53.8%
viability, T/C (second compound 1 µM, first compound 0.1 µM): 39.4%
viability, T/C (second compound 1 µM, first compound 0.316 µM): 36.2%
viability, T/C (second compound 1 µM, first compound 1 µM): 31.7%
viability, T/C (second compound 3.16 µM, first compound 0.00316 µM): 81.7%
viability, T/C (second compound 3.16 µM, first compound 0.01 µM): 62.9%
viability, T/C (second compound 3.16 µM, first compound 0.0316 µM): 43.1%
viability, T/C (second compound 3.16 µM, first compound 0.1 µM): 38.5%
viability, T/C (second compound 3.16 µM, first compound 0.316 µM): 34.7%
viability, T/C (second compound 3.16 µM, first compound 1 µM): 29.7%
viability, T/C (second compound 10 µM, first compound 0.00316 µM): 79%
viability, T/C (second compound 10 µM, first compound 0.01 µM): 60.8%
viability, T/C (second compound 10 µM, first compound 0.0316 µM): 42.6%
viability, T/C (second compound 10 µM, first compound 0.1 µM): 36.6%
viability, T/C (second compound 10 µM, first compound 0.316 µM): 33.6%
viability, T/C (second compound 10 µM, first compound 1 µM): 35.2%

Nc1ccccc1NC(=O)c1ccc(CNC(=O)OCc2cccnc2)cc1 + NC1CCC(NC2CC2c2ccccc2)CC1
IC50 (second compound 0.1 µM): 246 nM
IC50 (second compound 0.316 µM): 258 nM
IC50 (second compound 1 µM): 292 nM
IC50 (second compound 3.16 µM): 252 nM
IC50 (second compound 10 µM): 170 nM
viability, T/C [1]: 97.2%
viability, T/C [2]: 88.6%
viability, T/C [3]: 69%
viability, T/C [4]: 46.3%
viability, T/C [5]: 23.8%
viability, T/C [6]: 9.78%
viability, T/C [7]: 109%
viability, T/C [8]: 90.8%
viability, T/C [9]: 74.4%
viability, T/C [10]: 45.5%
viability, T/C [11]: 25%
viability, T/C [12]: 10.4%
viability, T/C [13]: 101%
viability, T/C [14]: 97%
viability, T/C [15]: 75.6%
viability, T/C [16]: 48%
viability, T/C [17]: 27.3%
viability, T/C [18]: 10.3%
viability, T/C [19]: 98.9%
viability, T/C [20]: 78.5%
viability, T/C [21]: 69.7%
viability, T/C [22]: 47%
viability, T/C [23]: 26.5%
viability, T/C [24]: 10.8%
viability, T/C [25]: 86.2%
viability, T/C [26]: 71.6%
viability, T/C [27]: 57.2%
viability, T/C [28]: 42.4%
viability, T/C [29]: 28.6%
viability, T/C [30]: 9.2%
